Ends that are not written are not given here.
Columns and labels:
[1] = test system: Escherichia coli UB1005; details: UB1005, 24 h
Method: (§1) The antimicrobial activity of each peptide was determined against the following bacteria strains: Escherichia coli ATCC 25922, Escherichia coli UB1005, Salmonella enterica serovar typhimurium C77-31, Staphylococcus aureus ATCC 29213, Staphylococcus aureus ATCC 25923 and Staphylococcus epidermidis ATCC 12228. The minimal inhibitory concentrations (MICs) of the peptides were measured according to a modified version of the National Committee for Clinical Laboratory Standards (NCCLS) broth microdilution method as described previously. Briefly, mid-logarithmic phase bacteria were cultured in Mueller-Hinton (MH) broth and then diluted to 1×10^5 CFU/ml. Equal volumes (50 µl) of microorganism solution and 2-fold serially diluted different concentrations (0.25–128 µM) peptides in 0.01% (v/v) acetic acid and 0.2% (w/v) bovine serum albumin (BSA, Sigma) were added to each well of the sterile 96-well plate. After incubation for 24 h at 37°C, MICs were determined as the lowest concentration of peptides that prevented visible turbidity by visual inspection. The tests were performed in triplicate. Cultures without peptides and uninoculated MH broth were employed as positive and negative controls, respectively. In addition, the salt stability of the peptides was tested in the MIC assay mentioned above.

[2] = test system: Staphylococcus aureus ATCC 29213; details: ATCC 29213, 24 h
Method: as §1

[3] = test system: Staphylococcus aureus ATCC 25923; details: ATCC 25923, 24 h
Method: as §1

[4] = test system: Salmonella enterica serovar typhimurium C77-31; details: serovar typhimurium C77-31, 24 h
Method: as §1

[5] = test system: Staphylococcus epidermidis ATCC 12228; details: ATCC 12228, 24 h
Method: as §1

[6] = test system: Escherichia coli ATCC 25922; details: ATCC 25922, 24 h
Method: as §1

[7] = test system: gram-negative and gram-positive bacteria (six strains tested); details: for GM, geometric mean of the MICs: all tested strains, >128 µM counted as 256 µM
Method: as §1

[8] = test system: human erythrocytes; test: Hemolytic activity; format: cell-based; details: for Hemolytic activity (in words): 1 h at 37°C in PBS, absorbance at 570 nm, up to 128 µM, three independent experiments; for Concentration causing 50% hemolysis: 1 h at 37°C, highest concentration 128 µM
Method: The hemolytic activity of the peptides was measured as the amount of hemoglobin released by the lysis of human erythrocytes. Briefly, 1 ml of fresh human blood cells (hRBCs) obtained from a healthy donor (Na Dong, Harbin, China) in a polycarbonate tube containing heparin was centrifuged at 1,000×g for 5 min at 4°C [16]. The experimental protocol was reviewed and approved by the ethics committee of the Northeast Agricultural University Hospital. The erythrocytes obtained were washed three times with phosphate-buffered saline (PBS) solution (pH 7.2) and resuspended in PBS. A 50 µl volume of the erythrocyte solution was incubated with 50 µl of various peptides dissolved in PBS for 1 h at 37°C. Intact erythrocytes were pelleted by centrifugation at 1,000×g for 5 min at 4°C, and the supernatant was transferred to a new 96-well plate. The release of hemoglobin was monitored by measuring the absorbance at 570 nm. As negative and positive controls, hRBCs in PBS without the peptide and 0.1% Triton X-100 were employed, respectively.

[9] = strain not given; for MIC, Without treatment: no salt added

Row | Substance | MIC E. coli UB 1005 [1] [µM] | MIC S. aureus ATCC 29213 [2] [µM] | MIC S. aureus ATCC 25923 [3] [µM] | MIC S. typhimurium C77-31 [4] [µM] | MIC S. epidermidis ATCC 12228 [5] [µM] | MIC E. coli ATCC25922 [6] [µM] | GM, geometric mean of the MICs [7] [µM] | Hemolytic activity (in words) [8] | Concentration causing 50% hemolysis [8] [µM] | Antimicrobial activity (in words) ([7]; tested microorganisms, up to 128 µM) | MIC, CaCl2 (1 mM) [9] [µM] | MIC, MgCl2 (1 mM) [9] [µM] | MIC, NaCl (50 mM) [9] [µM] | MIC, NaCl (100 mM) [9] [µM] | MIC, NaCl (150 mM) [9] [µM] | MIC, Without treatment [9] [µM]
1 | GVFRVLRKVTRVVLKVIGKVLKWI-NH2 [GI24-V6] | 4 | 2 | 2 | 4 | 2 | 2 | 2.52 | relatively high hemolytic activity | 8 |  |  |  |  |  |  | 
2 | GRFRRLRKKTRKRLKKIGKVLKAI-NH2 [GI24-W23A] | 16 | 128 | 128 | >128 | 128 | 16 | 71.84 |  |  |  |  |  |  |  |  | 
3 | GRFRRLRKKTRKRLKKIGKV |  |  |  |  |  |  |  |  |  | extremely low antimicrobial activity |  |  |  |  |  | 
4 | GRFRRLRKKTRKRLKKIGKVLKLI-NH2 [GI24-W23L] | 2 | 4 | 4 | 2 | 4 | 1 | 2.52 | slightly hemolytic activity |  |  |  |  |  |  |  | 
5 | GRFRRLRKKTRKRLKKIGKVLKWI-NH2 [GI24] | 2 | 2 | 4 | 1 | 2 | 1 | 1.78 | slightly hemolytic activity | > 128 |  | 1 | 2 | 1 | 2 | 2 | 1
6 | GVFRRLRKVTRKVLKKIGKVLKWI-NH2 [GI24-V3] | 4 | 4 | 4 | 4 | 2 | 4 | 3.56 | relatively high hemolytic activity | 128 |  |  |  |  |  |  | 
7 | GRFRRLRKKTRKRLKKIGKVLKWIPPIVGSIPLGCG-NH2 [PMAP-36, porcine myeloid antimicrobial peptide-36] | 2 | 2 | 2 | 1 | 2 | 1 | 1.59 | slightly hemolytic activity |  |  | 1 | 2 | 1 | 1 | 2 | 1
8 | GRFRRLRKKTRKRLKKIGKVLKKI-NH2 [GI24-W23K] | 16 | 32 | 64 | >128 | 32 | 32 | 45.25 | no hemolytic activity |  |  |  |  |  |  |  | 
9 | GRFRRLRKKTRK-NH2 [GK12] | 128 | >128 | >128 | >128 | >128 | 128 | 203.19 | no hemolytic activity |  |  |  |  |  |  |  | 
10 | RLKKIGKVLKWI-NH2 [RI12] | 16 | 64 | 128 | 8 | 64 | 8 | 28.51 | no hemolytic activity |  |  |  |  |  |  |  | 
11 | PPIVGSIPLGCG-NH2 [PG12] | >128 | >128 | >128 | >128 | >128 | >128 | 256 | no hemolytic activity |  |  |  |  |  |  |  | 
